In patent US20250127169A1, “PLANTS HAVING INCREASED TOLERANCE TO HERBICIDES” (BASF Agricultural Solutions Seed US LLC, priority 2021, published 2025):
Several values for one entry are separate records, joined by “and”; a condition that tells them apart may be missing. Equal entries are not always repeated.

Assays:
[1] = target: PPO2 AMATU L397Q, F420M (variant based on SEQ ID NO: 1) (Amaranthus tuberculatus, UniProt Q0NZW9, F420M/L397Q); experiment: biochemical
[2] = target: PPO2 AMATU L397E, F420V (variant based on SEQ ID NO: 1) (Amaranthus tuberculatus, UniProt Q0NZW9, F420V/L397E); experiment: biochemical

Structure (SMILES) | IC50 [1] | IC50 [2]
CCOC(=O)C(OC)Oc1ccccc1Oc1cc(-n2c(=O)cc(C(F)(F)F)n(C)c2=O)c(F)cc1Br (stereo not drawn) [phenyluracil 2, ethyl 2-[2-[2-bromo-4-fluoro-5-[3-methyl-2,6-dioxo-4-(trifluoromethyl)pyrimidin-1-yl]phenoxy]phenoxy]-2-methoxy-acetate] | 159 nM | 6790 nM
COC(Oc1ccccc1Oc1cc(-n2c(=O)cc(C(F)(F)F)n(C)c2=O)c(F)cc1Br)C(=O)O (stereo not drawn) [phenyluracil 3, 2-[2-[2-bromo-4-fluoro-5-[3-methyl-2,6-dioxo-4-(trifluoromethyl)pyrimidin-1-yl]phenoxy]phenoxy]-2-methoxy-acetic acid] | 143 nM | 2810 nM
COC(=O)C(OC)Oc1ccccc1Oc1cc(-n2c(=O)cc(C(F)(F)F)n(C)c2=O)c(F)cc1Br (stereo not drawn) [phenyluracil 1, methyl 2-[2-[2-bromo-4-fluoro-5-[3-methyl-2,6-dioxo-4-(trifluoromethyl)pyrimidin-1-yl]phenoxy]phenoxy]-2-methoxy-acetate] | 357 nM and 354 nM | 5790 nM and 5450 nM
